Where “and” joins values, the source holds several entries; their conditions need not be identical. Identical values can stand only once. Entries after “also recorded” stand apart in the source; their conditions may differ. Counter-ions that a name gives are not always drawn. Like-named read-outs stand apart in the source and are kept apart here.

Data on 5 compounds can be found in patent publication US20110281839A1, “COMBINATION THERAPY FOR THE TREATMENT OF BACTERIAL INFECTIONS” (priority 2010, published 2011).

One experiment deals with A. baumannii isolates. The experiment can be described thus: Susceptibility of A. baumannii isolates by broth microdilution (CLSI methodology). The format is cell-based. The note with it: for MIC: Acinetobacter baumannii. How it is done: Susceptibility of the A. baumannii isolates to each of the agents was determined by broth microdilution using Clinical and Laboratory Standards Institute (CLSI) methodology at a central laboratory. […] The susceptibility of A. baumannii to other drugs was interpreted according to the standard procedures as defiend by CLSI (Clinical and Laboratory Standards Institute Test Procedures MO2-A10, Vol. 29, No. 1; M07-A8, Vol. 29, No. 2 and/or M100-S19, Vol. 29, No. 3; Jan. 2009).
In general terms: In broth dilution the organism is exposed to a series of concentrations in liquid medium.

The subject of experiment [1] is A. baumannii. The note with it: MICs as high as 16 μg/mL; doripenem 1 gram over a 4 hour infusion; cited from earlier work.
Experiment [2] concerns A. baumannii. The experiment can be described thus: Clinical and microbiological outcome at test of cure visit in subjects with nosocomial pneumonia, 3 clinical studies of doripenem. The class given is in vivo, human. How it is done:
Each group received treatment of either doripenem alone or doripenem with concomitant therapy, as noted.
True concomitant therapy was determined by applying the following algorithm: treatment with the second antimicrobial was initiated during Study Days 1-14 and administered on the same study days as doripenem. In addition, the second antimicrobial was given for >1 day of the overlapping period. Concomitant therapy was assessed for the following antimicrobial agents: the fluoroquinolones ciprofloxacin and levofloxacin, colistin and the aminoglycosides amakacin and tobramycin.
Doripenem was administered at either 500 mg Q8H as a 1 hour infusion, 500 mg Q8H as a 4 hour infusion or 1g Q8H as a 4 hour infusion, depending on the specific clinical study, as noted in the Tables below.

The mark [3] stands for this setting: isolate of each patient, doripenem + amikacin group.
Where [4] appears, read: A. baumannii isolate of each patient, doripenem monotherapy group, monohydrate.
Setting [5] is: isolate of each patient, doripenem + amikacin group, monohydrate.
The mark [6] stands for this setting: isolate of each patient, doripenem + colistin group, monohydrate.
[7] abbreviates: isolate of each patient, doripenem + fluoroquinolone group.
Setting [8] is: isolate of each patient, doripenem + tobramycin group, monohydrate.
The mark [9] stands for this setting: per patient, test of cure visit, doripenem 1 gram or 500 mg every 8 hours, listed as Doripenem Monotherapy, monohydrate.
Where [10] appears, read: whole treatment group, test of cure.
The mark [11] stands for this setting: isolate of each patient, doripenem + tobramycin group.
Where [12] appears, read: isolate of each patient, doripenem + colistin group.

With `NCC[C@H](O)C(=O)N[C@@H]1C[C@H](N)[C@@H](O[C@H]2O[C@H](CN)[C@@H](O)[C@H](O)[C@H]2O)[C@H](O)[C@H]1O[C@H]1O[C@H](CO)[C@@H](O)[C@H](N)[C@H]1O` [Amikacin, amikacin], in the experiment on A. baumannii isolates (setting [3]), the “Amikacin MIC” value is >64 μg/mL (5×) and 4 μg/mL and 1 μg/mL (2×) and 2 μg/mL; the Amikacin susceptibility entry is “(NS) (Non-susceptible (NS) ≧32 μg/mL); also recorded: (S) (Amikacin: Susceptible (S) ≦16 μg/mL)”.
Turning to `C[C@@H](O)[C@H]1C(=O)N2C(C(=O)O)=C(S[C@@H]3CN[C@H](CNS(N)(=O)=O)C3)[C@H](C)[C@H]12` [Doripenem, doripenem monohydrate], the “treatment of pneumonia due to A. baumannii” value in the experiment with A. baumannii [1] was “effectively treated”. For the same compound, the “Doripenem MIC” value with A. baumannii isolates (setting [4]) was 0.25 μg/mL (2×) and 0.12 μg/mL (2×) and 0.5 μg/mL (2×) and >128 μg/mL and 8 μg/mL and 1 μg/mL; with A. baumannii isolates (setting [5]), 64 μg/mL (2×) and 1 μg/mL (2×) and 0.25 μg/mL and 0.12 μg/mL and >32 μg/mL and 16 μg/mL; with A. baumannii isolates (setting [6]), >32 µg/mL and 32 µg/mL and 1 µg/mL; in the experiment on A. baumannii isolates (isolate of each patient, doripenem + fluoroquinolone group, monohydrate) it was 32 µg/mL and 16 µg/mL and >32 µg/mL; with A. baumannii isolates (setting [8]) it was 0.12 μg/mL (3×) and >32 μg/mL and 1 μg/mL and 0.25 μg/mL. Moreover, the Doripenem susceptibility entry with A. baumannii isolates (setting [4]) is given as “(S) (Susceptible (S) ≦1 μg/mL); also recorded: (NS) (Non-susceptible (NS) >2 μg/mL)”; in the experiment with A. baumannii isolates (setting [5]) it was “(NS) (Non-susceptible (NS) >2 μg/mL); also recorded: (S) (Susceptible (S) ≦1 μg/mL)”; with A. baumannii isolates (setting [6]), “(NS) (Non-susceptible (NS) >2 μg/mL); also recorded: (S) (Susceptible (S) ≦1 μg/mL)”; with A. baumannii isolates (setting [7]) it was “(NS) (Non-susceptible (NS) >2 μg/mL)”; in the experiment with A. baumannii isolates (setting [8]), “(S) (Susceptible (S) ≦1 μg/mL); also recorded: (NS) (Non-susceptible (NS) >2 μg/mL)”. Besides, the MIC – broadly, the smallest concentration in the dilution series that meets the test's criterion for growth inhibition – in the experiment on A. baumannii isolates (isolate of each patient, doripenem + fluoroquinolone group, read-out: Doripenem MIC) is over 32 µg/mL. Besides, the treatment effect result in the experiment with A. baumannii [2] (nosocomial pneumonia due to doripenem-susceptible A. baumannii) is reported as “effective”. Moreover, the “Clinical Outcome” value in the experiment with A. baumannii [2] (setting [9]) is “Cure (7×) and Failure (2×)”. In addition, the “Microbiological Outcome” value with A. baumannii [2] (setting [9]) is recorded as “Eradicated; also recorded: Persisted”. Besides, in the experiment with A. baumannii [2] (setting [10]), the positive outcome is given as 77.8%. Also, the “positive outcome (patients with positive outcome / patients in group)” value with A. baumannii [2] (setting [10]) was 7/9.
For the compound `C[C@H]1COc2c(N3CCN(C)CC3)c(F)cc3c(=O)c(C(=O)O)cn1c23` [Levofloxacin, levofloxacin], the MIC in the experiment with A. baumannii isolates (isolate of each patient, doripenem + fluoroquinolone group, read-out: Fluoroquinolone MIC) is over 4 µg/mL. Moreover, in the experiment with A. baumannii isolates (setting [7]), the “Fluoroquinolone MIC” value is over 4 µg/mL and the Levofloxacin susceptibility result is “(NS) (Non-susceptible (NS) ≧4 μg/mL)”.
Regarding `NC[C@H]1O[C@H](O[C@H]2[C@H](O)[C@@H](O[C@H]3O[C@H](CO)[C@@H](O)[C@H](N)[C@H]3O)[C@H](N)C[C@@H]2N)[C@H](N)C[C@@H]1O` [Tobramycin, tobranycin sulfate], in the experiment with A. baumannii isolates (setting [11]), the “Tobramycin MIC” value was 0.5 μg/mL (2×) and 4 μg/mL and 0.25 μg/mL; the Tobramycin susceptibility entry is listed as “(S) (Tobramycin: Susceptible (S) ≦4 μg/mL)”.
As to colistin, in the experiment with A. baumannii isolates (setting [12]), the “Colistin MIC” value was determined as 1 µg/mL and the Colistin susceptibility entry is given as “S (Colistin: Susceptible (S) ≦2 μg/mL)”.
